Legend:
C57B16/J mice [1] = experiment: Mechanical pain sensitivity (von Frey filaments) in sub-chronic cisplatin model; format: in vivo; settings: KW-6002 3 mg/kg i.p. daily day -5 to day 7; cisplatin 3 mg/kg i.p. for 6 days; vs. cisplatin; FIG. 1A
Procedure: (§1) Animal experiments were adapted from 63-64. Animal procedures were performed in 8 to 10 weeks old male C57B16/J mice (Janvier Labs except for pain experiments, Jackson lab). Mice were fed a laboratory standard diet with water and food ad libitum and were kept under constant environmental conditions with a 12-hour light-dark cycle. Istradefylline (KW-6002; Tocris) was dissolved in a carrier solution consisting in 15% DMSO, 15% cremophor (Sigma), 70% saline solution (vehicle). Cisplatin (Accord Healthcare) was dissolved in saline solution. Neuropathy resulting from of sub-chronic cisplatin was evaluated following six daily i.p. injections of cisplatin (3 mg/kg) starting at day 0 and mice were sacrificed 72h after the last injection of cisplatin (day 8). KW-6002 was administered daily i.p. from day −5 to day 7 (FIG. 2).
(§2) Mechanical pain sensitivity, a classical read out for CIPN in rodents, was assessed using von Frey filaments as previously described (65-66). Briefly, mice were placed in opaque boxes (10×10×10 cm). After a 30 min habituation period, von Frey filaments were applied, and the paw withdrawal threshold was calculated using the “up & down” method. Behavioral testing was performed by experimenter blinded to treatment and genotype.

[2] = system: Il6, Tnf, Il1b and Ccl2 expression in DRG and spinal cord; experiment: mRNA levels of cytokines in spinal cord and DRG (quantitative RT-PCR), sub-chronic cisplatin model; format: in vivo, mice; settings: 8 days after start of cisplatin treatment, vs. cisplatin
Procedure: as §1
Lumbar dorsal root ganglion (DRG) and spinal cord tissues were quickly dissected and snap-frozen in liquid nitrogen.
For DRG and spinal cord tissues, total RNA was extracted with phenol/chloroform and subsequently precipitated in isopropanol as described previously (71).
(§3) Reverse transcription was performed on 1 μg of RNA using high-capacity cDNA reverse transcription kit (Thermo Fisher), according the manufacturer's recommendation. Real time PCR was performed on a StepOne device using Taqman Gene Expression Master Mix (Thermo Fisher), following manufacturer's recommendations. Expression levels of the following genes were evaluated using comparative CT method (2-deltaCT): Tumor Necrosis Factor alpha (Tnfa, Assay ID Mm00443258_m1), Interleukin-6 (Il6, Assay ID Mm00446190_m1), Il1b (assay ID Mm00434228_m1); chemokine (C-C motif) ligand 2 (Ccl2, assay ID Mm00441242_m1). Transcript levels of PPIA (Mm02342430_m1) were used as endogenous control.

[3] = system: KIM-1, Tnf and Il6 expression; experiment: Cisplatin-induced nephrotoxicity markers (mRNA) in mEERL tumor-bearing mice; format: in vivo; settings: cisplatin plus KW6002 vs. cisplatin
Procedure: (§4) We used a validated murine model of HPV+ oropharyngeal squamous cell carcinoma as previously described (noncommercial) (80). This model consists of oropharyngeal epithelial cells from C57Bl/6 male mice that stably express the HPV16 viral oncogenes E6 and E7, H-Ras, and luciferase (mEERL cells). mEERL cells were grown in a T75 flask until confluent, after which cells were trypsinized and harvested, washed 3 times with sterile PBS, and resuspended in 1 mL sterile PBS to the appropriate concentration. Mice were injected s.c. into the right flank with 20 μL solution containing either 1,000,000 mEERL cells or PBS (vehicle). The day of mEERL cell injection is indicated as day −14. Tumor volume was monitored using Vernier digital calipers. When the tumor volume reached 100 mm3, the mice were randomly ascribed to 1 of the 3 experimental groups (vehicle; cisplatin; or cisplatin plus KW6002).
as §3

C57B16/J mice [4] = experiment: Mechanical sensitivity (von Frey hairs) in mEERL tumor-bearing mice; format: in vivo; settings: cisplatin plus KW6002 vs. cisplatin, FIG. 3D
Procedure: as §4, §2

mEERL cells = experiment: Tumor size in mEERL syngeneic in vivo tumor model; settings: mEERL tumor-bearing mice; cisplatin plus KW6002 vs. cisplatin; FIG. 3E
Procedure: as §4

## CCn1c(=O)c2c(nc(/C=C/c3ccc(OC)c(OC)c3)n2C)n(CC)c1=O [KW-6002, 8-[(E)-2-(3,4-dimethoxyphenyl)vinyl]-1,3-diethyl-7-methyl-3,7-dihydro-1H-purine-2,6-dione]
C57B16/J mice [1]
  cisplatin-induced pain hypersensitivity (mechanical sensitivity, von Frey): significantly mitigated pain hypersensitivity
[2]; KW-6002 3 mg/kg, FIG. 1C
  Tnf mRNA level in spinal cord: significantly downregulated
[2]; KW-6002 3 mg/kg, FIG. 1D
  Il6 mRNA level in DRG: significantly downregulated
[2]; KW-6002 3 mg/kg, FIG. 1E
  Tnf mRNA level in DRG: significantly downregulated
[2]; FIG. 1F
  Il 1b mRNA level in DRG: significantly reversed the upregulation
[2]; FIG. 1G
  Ccl2 mRNA level in DRG: significantly reversed the upregulation
[3]; FIG. 3A
  indicator of renal toxicity KIM-1 (mRNA) induced by cisplatin: limited
[3]; FIG. 3B
  expression of inflammatory cytokine Tnf induced by cisplatin: limited
[3]; FIG. 3C
  expression of inflammatory cytokine Il6 induced by cisplatin: limited
C57B16/J mice [4]
  cisplatin-induced pain hypersensitivity (von Frey): alleviated
mEERL cells
  tumor control by cisplatin (absolute tumor size): significantly potentiated

— patent publication US20250161313A1, “A METHOD FOR THE TREATMENT OF NEUROPATHY” (INSTITUT NATIONAL DE LA SANTÉ ET DE LA RECHERCHE MÉDICALE, priority 2022, published 2025)
